Reference: publication PMC9916658, “Design and Synthesis of New Quinazolin-4-one Derivatives with Negative mGlu7 Receptor Modulation Activity and Antipsychotic-Like Properties” (International Journal of Molecular Sciences, 2023)

Assays:
[1] = molecular target: T1, human mGlu8 receptor (Homo sapiens, UniProt O00222); experiment: mGlu8 receptor selectivity, cAMP accumulation screening at 10 µM; type: cell-based; settings: group III mGlu receptors
T1 construct: expressed in transfected cells; host or cells: T-REx 293 (tetracycline-inducible)
T1 sequence (O00222 34-908): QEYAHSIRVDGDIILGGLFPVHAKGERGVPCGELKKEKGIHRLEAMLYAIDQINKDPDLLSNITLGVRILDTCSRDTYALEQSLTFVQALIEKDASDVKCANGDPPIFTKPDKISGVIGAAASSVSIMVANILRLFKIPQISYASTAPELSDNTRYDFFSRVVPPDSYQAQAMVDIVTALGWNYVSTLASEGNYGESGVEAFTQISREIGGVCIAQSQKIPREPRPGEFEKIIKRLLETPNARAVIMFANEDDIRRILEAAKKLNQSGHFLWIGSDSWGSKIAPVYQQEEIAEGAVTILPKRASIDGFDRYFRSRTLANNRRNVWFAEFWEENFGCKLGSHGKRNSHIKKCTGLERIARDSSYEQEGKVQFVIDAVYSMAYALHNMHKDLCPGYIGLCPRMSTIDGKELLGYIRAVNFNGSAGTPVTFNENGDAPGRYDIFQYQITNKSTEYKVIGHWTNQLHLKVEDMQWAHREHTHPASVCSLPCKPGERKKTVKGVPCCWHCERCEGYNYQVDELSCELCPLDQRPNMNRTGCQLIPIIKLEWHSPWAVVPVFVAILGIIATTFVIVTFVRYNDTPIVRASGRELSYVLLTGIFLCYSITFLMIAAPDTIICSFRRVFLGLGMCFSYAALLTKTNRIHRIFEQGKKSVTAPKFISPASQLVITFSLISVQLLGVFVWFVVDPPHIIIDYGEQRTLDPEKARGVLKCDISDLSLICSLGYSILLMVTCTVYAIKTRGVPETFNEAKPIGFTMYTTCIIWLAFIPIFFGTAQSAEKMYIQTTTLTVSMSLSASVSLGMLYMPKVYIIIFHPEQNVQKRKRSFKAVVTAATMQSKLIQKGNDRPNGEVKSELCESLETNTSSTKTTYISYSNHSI
Method: The cell lines with the tetracycline-inducible expression of human metabotropic receptors 4, 7, and 8 were described in detail by Chruścicka et al. (mGlu4 receptor NM_000841, mGlu7 receptor NM_000844.2, and mGlu8 receptor NM_000845). Cells were grown under standard cell culture conditions (37 °C, 5% CO2) in DMEM supplemented with 10% tetracycline-free FBS. The expression was induced through the addition of tetracycline to the culture medium at 0.75 μg/mL.
The determination of the intracellular cAMP through homogeneous time-resolved fluorescence (HTRF) was described in detail previously. […] The intracellular concentration of cyclic AMP was measured by means of a cAMP Gi HTRF kit from Cisbio, according to the manufacturer’s instructions. After 1 h of incubation at room temperature, the fluorescence at 620 nm and 665 nm was read (Tecan Infinite M1000). The results were calculated as the 665 nm/620 nm ratio multiplied by 10^4. […] Data were analyzed using GraphPad Prism version 5.04 for Windows (GraphPad Software, San Diego, USA).
Firstly, all compounds were screened at 10 μM using three cell lines expressing the mGlu4/7/8 receptor to evaluate selectivity. […] For compounds that passed the screening procedure, the dose–response curve in the presence of LSP4-2022 in 5 μM was evaluated compared to reference NAM ADX71743. […]

[2] = test system: MK-801-induced hyperactivity in mice; experiment: MK-801-induced hyperactivity; type: in vivo; settings: mice, 2.5, 5, or 10 mg/kg
Method: The locomotor activity was recorded individually for each animal in locomotor activity cages with modifications. […] After 30 min, all of the mice were injected i.p. with MK-801 at 0.35 mg/kg and once again placed in the same cage. From then on, the ambulation scores were counted for 60 min. All of the groups were compared with the MK-801 control group. The experiment also included a control group treated with NaCl only.

[3] = test system: MK-801-induced disruptions of social interactions in mice; experiment: Social interaction test (MK-801-induced deficits); type: in vivo; settings: all tested doses
Method: The method was adapted from de Moura Linck et al., 2008 [57], and Woźniak et al., 2016 [58]. After the 2-day habituation trial (10 min/day), a pair of mice was placed in the open field for 5 min. The social interactions between the two mice were determined based on the total time spent participating in social behavior, such as genital investigation, sniffing, chasing, and fighting each other. The total number of social episodes was also measured. The test was video-recorded and viewed by a trained observer.

selectivity over mGlu8 [1]: selective
Structure (SMILES): COc1cccc(-c2ccc3nc(-c4ccccc4Cl)n(C)c(=O)c3c2)c1OC [ALX-171, 2-(2-chlorophenyl)-6-(2,3-dimethoxyphenyl)-3-methylquinazolin-4(3H)-one]
MK-801-induced increase in locomotor activity [2]: not able to reverse
MK-801-induced disruption in the interaction time [3]: reversed
MK-801-induced disruption in the number of episodes [3]: reversed
